Common to all, as to experiment: time-synchronized fluorescence quenching titration
Holding throughout (assay type): binding

One test addresses T1, heIF4E3 (Homo sapiens, UniProt Q8N5X7).
T1 construct: gene EIF4E3; not described in main text (experimental details in supplement)
An excerpt:
time-synchronized fluorescence quenching titration on heIF4E3

The next test concerns the target T2, h4EHP (eIF4E2) (Homo sapiens, UniProt O60573).
T2 construct: not described in main text (experimental details in supplement)
T2 sequence (O60573 1-245): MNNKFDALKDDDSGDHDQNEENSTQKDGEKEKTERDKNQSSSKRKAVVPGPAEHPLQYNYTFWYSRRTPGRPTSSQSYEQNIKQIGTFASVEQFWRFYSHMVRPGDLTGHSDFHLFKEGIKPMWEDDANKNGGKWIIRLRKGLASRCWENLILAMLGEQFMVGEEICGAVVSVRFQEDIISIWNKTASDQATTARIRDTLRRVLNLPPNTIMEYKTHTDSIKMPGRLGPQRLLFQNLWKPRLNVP
An excerpt:
time-synchronized fluorescence quenching titration on h4EHP (eIF4E2)

For the next test, the target named is T3, heIF4E1a (Homo sapiens, UniProt P06730).
T3 construct: gene EIF4E; not described in main text (experimental details in supplement)
T3 sequence (P06730 2-217): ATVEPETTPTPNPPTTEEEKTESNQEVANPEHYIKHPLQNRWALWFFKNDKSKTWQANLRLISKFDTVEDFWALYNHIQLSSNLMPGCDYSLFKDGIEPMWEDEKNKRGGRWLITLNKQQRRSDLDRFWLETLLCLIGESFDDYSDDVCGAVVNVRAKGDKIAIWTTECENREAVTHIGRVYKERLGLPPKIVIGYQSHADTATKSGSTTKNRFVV

T1 sequence (Q8N5X7 whole entry): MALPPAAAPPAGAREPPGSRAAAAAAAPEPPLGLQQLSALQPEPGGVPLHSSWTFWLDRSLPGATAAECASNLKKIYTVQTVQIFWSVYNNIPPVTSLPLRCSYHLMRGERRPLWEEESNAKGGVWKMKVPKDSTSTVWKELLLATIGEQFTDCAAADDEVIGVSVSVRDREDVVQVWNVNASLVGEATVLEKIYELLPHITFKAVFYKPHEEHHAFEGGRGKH

In the case of `CO[C@@H]1[C@H](OP(=O)(O)OC[C@H]2O[C@@H](n3cnc4c(=O)[nH]c(N)nc43)[C@H](O)[C@@H]2O)[C@@H](COP(=O)(O)OP(=O)(O)OP(=O)(O)OC[C@H]2O[C@@H](n3c[n+](C)c4c(=O)[nH]c(N)nc43)[C@H](O)[C@@H]2O)O[C@H]1n1cnc2c(NCc3ccccc3)ncnc21` [compound 1, m^7Gppp^Bn6AmpG], the Kd was found to be 95.7 ± 1.7 nM on heIF4E3, 687 ± 10 nM on h4EHP (eIF4E2) and 23.9 ± 0.5 nM at heIF4E1a.

Take `C[n+]1cn([C@@H]2O[C@H](COP(=O)(O)OP(=O)(O)OP(=O)(O)O)[C@@H](O)[C@H]2O)c2nc(N)[nH]c(=O)c21` [m^7GTP]: the Kd on heIF4E3 was 129 ± 14 nM; on h4EHP (eIF4E2), 611 ± 19 nM.

Turning to `CO[C@@H]1[C@H](OP(=O)(O)OC[C@H]2O[C@@H](n3cnc4c(=O)[nH]c(N)nc43)[C@H](O)[C@@H]2O)[C@@H](COP(=O)(O)OP(=O)(O)OP(=O)(O)OC[C@H]2O[C@@H](n3c[n+](C)c4c(=O)[nH]c(N)nc43)[C@H](O)[C@@H]2O)O[C@H]1n1cnc2c(N)ncnc21` [m^7GpppAmpG], the Kd on heIF4E3 came to 153 ± 3 nM; on h4EHP (eIF4E2) it was 1020 ± 19 nM; on heIF4E1a, 42.1 ± 0.7 nM.

`CNc1ncnc2c1ncn2[C@@H]1O[C@H](COP(=O)(O)OP(=O)(O)OP(=O)(O)OC[C@H]2O[C@@H](n3c[n+](C)c4c(=O)[nH]c(N)nc43)[C@H](O)[C@@H]2O)[C@@H](OP(=O)(O)OC[C@H]2O[C@@H](n3cnc4c(=O)[nH]c(N)nc43)[C@H](O)[C@@H]2O)[C@H]1OC` [m^7Gppp^m6AmpG]: the values for the Kd on heIF4E3, at h4EHP (eIF4E2) and on heIF4E1a were 140 ± 4 nM, 1340 ± 32 nM and 46.4 ± 0.6 nM, respectively.

Values taken from publication PMC10979456, “Trinucleotide mRNA Cap Analogue N6-Benzylated at the Site of Posttranscriptional ^m6Am Mark Facilitates mRNA Purification and Confers Superior Translational Properties In Vitro and In Vivo” (Journal of the American Chemical Society, 2024).
